Data as given in patent publication US5968751A, “Method for detecting the presence of protein C antibody in a fluid sample” (The Scripps Research Institute, priority 1997, dated 1999).
No end group written: not given here.

Key:
Type in all cases: biochemical
Factor Xa = target: T1, Factor Xa (Homo sapiens, UniProt P00742); assay: Factor Xa amidolytic activity towards chromogenic substrates
T1 construct: purchased Enzyme Research Laboratories, Southbend, Ind
Experimental: To determine the effect of the APC-inhibiting peptides, PC311-325 and PC142-155, on the amidolytic activity of Factor Xa, amidolytic assays as described for APC in Example 5a3 were performed using 0.15 nM Factor Xa in the presence of increasing amounts of peptide. Peptide PC311-325 ranged in concentration from 0 to 100 μM whereas peptide PC142-155 ranged in concentration from 0 to 50 μM.
For the assay, 100 μl of 0.15 nM factor Xa, prepared in Example 5a5) were admixed with separate aliquots of either peptide prepared in TBS-BSA at pH 7.4 containing 0.02% NaN3 and 2 mM CaCl2 to form APC-peptide admixtures. After maintenance of the admixtures for 30 minutes at 37° C., 50 μl of 2.4 mM S-2222 in the same buffer were admixed to initiate the amidolytic reaction. The hydrolysis of the substrate was measured as described before.

APC = APC (Homo sapiens, UniProt P04070); assay: APC-catalyzed inactivation of Factor Va, residual Va by prothrombinase assay; set-up: Protein C consists of a 155 amino acid residue light chain and a 262 amino acid residue heavy chain; from tissue; Factor Va a gift (Tans and Rosing, Univ. of Limburg)
Experimental: The APC catalyzed inactivation of Factor Va assays were performed in 96-well flat bottom ELISA plates (Stockwell Scientific, Walnut, Calif.). The reactions were performed either in the presence or absence of phospholipid vesicles to determine if either PC311-325 or PC142-155 inhibited APC anticoagulant activity by inhibiting the binding of APC or its substrate to phospholipids or if it was independent of phospholipid surfaces. This determination was relevant in light of reports that the assembly of APC with its substrates Va and VIIIa on the phospholipid surface appeared to be mediated mainly by the Gla-domain of APC in the presence of calcium which was crucial for exerting significant anticoagulant activity. [Sugo et al., J. Biol. Chem., 260:10453-10457 (1985); […] et al., J. Biol. Chem., 261:9684-9693 (1986); Solymoss et al., J. Biol. Chem., 263:14884-14890 (1988)]. For the preparation of phospholipid residues for use in the assay bovine brain phosphatidylserine in chloroform […]/methanol (CH3 OH) and soybean phosphatidylcholine (Type III-S, CCl4 solution) were purchased from Sigma and were reported to be at least 98% homogeneous (supplier's estimates). To prepare vesicles, phosphatidylserine was admixed with phosphatidylcholine (20% phosphatidylserine/80% phosphatidylcholine; M/M) and the organic solvent evaporated under a stream of nitrogen. The resultant phospholipid admixture was resuspended in 0.05 M TBS-Az at pH 7.4 as a 1.25 mM solution by vortexing. Single bilayer vesicles were obtained during sonication by direct probe (Heat-Systems-Ultrasonics, Inc., […] Sonicator) for 6×30 second bursts at 30 W in 2 minute intervals at 4° C. The reaction buffer consisted of 0.05 M Tris-HCl, at pH 7.4 containing 0.1 M NaCl, 0.02% NaN3, 0.5% BSA and 2.5 mM CaCl2. […] M/M) either at 22° C. (in the presence of phospholipids) or at 37° C. (in the absence of phospholipids). […] The monoclonal antibody C3 which specifically recognizes the light-chain of PC as well as APC was prepared as in Example 2. Factor Va (a gift from Drs. Tans and Rosing, Univ. of Limburg, the Netherlands) was first admixed with or without PC311-325 or PC142-155 and maintained for 20 minutes either at 22° C. or at 37° C. prior to admixture with APC. […] Factor Va was determined via its cofactor activity in the activation of prothrombin by Factor Xa. […] The molar concentration of Factor Xa was determined by active site titration as described by Chase et al., Biochem. Biophys. […]

thrombin = thrombin (Homo sapiens, UniProt P00734); assay: clotting of purified fibrinogen by thrombin

APC, sequence (P12259 29-737 partner limits assumed): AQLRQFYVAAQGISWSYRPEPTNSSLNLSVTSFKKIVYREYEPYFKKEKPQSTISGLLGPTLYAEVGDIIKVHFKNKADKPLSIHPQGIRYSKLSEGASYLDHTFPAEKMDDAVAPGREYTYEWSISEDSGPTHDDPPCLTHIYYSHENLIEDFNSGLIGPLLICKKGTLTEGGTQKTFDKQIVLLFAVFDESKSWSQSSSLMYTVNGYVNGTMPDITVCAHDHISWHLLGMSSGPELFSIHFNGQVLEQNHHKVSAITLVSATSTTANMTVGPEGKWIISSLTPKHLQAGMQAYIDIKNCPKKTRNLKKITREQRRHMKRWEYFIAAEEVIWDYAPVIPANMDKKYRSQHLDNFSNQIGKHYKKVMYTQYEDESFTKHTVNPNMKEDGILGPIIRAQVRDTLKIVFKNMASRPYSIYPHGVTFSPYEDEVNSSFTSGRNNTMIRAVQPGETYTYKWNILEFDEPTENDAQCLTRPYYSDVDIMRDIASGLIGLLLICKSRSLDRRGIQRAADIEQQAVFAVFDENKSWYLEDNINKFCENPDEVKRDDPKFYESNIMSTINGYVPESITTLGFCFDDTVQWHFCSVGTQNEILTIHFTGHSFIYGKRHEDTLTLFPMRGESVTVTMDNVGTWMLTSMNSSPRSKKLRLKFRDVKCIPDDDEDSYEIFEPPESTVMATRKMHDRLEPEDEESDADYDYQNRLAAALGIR
APC, sequence (P12259 1574-2224 partner limits assumed): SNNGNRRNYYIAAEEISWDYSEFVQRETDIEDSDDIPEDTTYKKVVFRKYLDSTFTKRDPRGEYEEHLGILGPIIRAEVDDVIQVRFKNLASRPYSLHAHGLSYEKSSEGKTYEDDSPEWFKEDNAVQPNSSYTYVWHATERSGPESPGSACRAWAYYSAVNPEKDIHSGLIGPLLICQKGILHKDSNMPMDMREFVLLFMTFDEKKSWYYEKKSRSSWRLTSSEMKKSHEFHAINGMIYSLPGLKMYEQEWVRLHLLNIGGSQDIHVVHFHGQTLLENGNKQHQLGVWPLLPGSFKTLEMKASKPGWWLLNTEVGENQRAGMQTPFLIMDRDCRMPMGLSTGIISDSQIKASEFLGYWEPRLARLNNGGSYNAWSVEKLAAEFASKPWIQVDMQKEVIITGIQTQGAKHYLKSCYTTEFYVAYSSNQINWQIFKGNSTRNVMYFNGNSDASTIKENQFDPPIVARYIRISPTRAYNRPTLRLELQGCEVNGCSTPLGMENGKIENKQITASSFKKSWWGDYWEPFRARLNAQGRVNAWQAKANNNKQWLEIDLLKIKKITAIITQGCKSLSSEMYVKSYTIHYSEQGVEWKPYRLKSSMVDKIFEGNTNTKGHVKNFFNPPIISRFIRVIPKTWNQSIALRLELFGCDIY
APC, sequence (P04070 43-197 limits assumed): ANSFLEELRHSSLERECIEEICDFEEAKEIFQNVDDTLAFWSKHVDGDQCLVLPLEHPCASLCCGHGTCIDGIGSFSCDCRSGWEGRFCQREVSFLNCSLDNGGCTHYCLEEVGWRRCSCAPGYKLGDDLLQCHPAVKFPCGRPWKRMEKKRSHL
APC, sequence (P04070 212-450 limits assumed): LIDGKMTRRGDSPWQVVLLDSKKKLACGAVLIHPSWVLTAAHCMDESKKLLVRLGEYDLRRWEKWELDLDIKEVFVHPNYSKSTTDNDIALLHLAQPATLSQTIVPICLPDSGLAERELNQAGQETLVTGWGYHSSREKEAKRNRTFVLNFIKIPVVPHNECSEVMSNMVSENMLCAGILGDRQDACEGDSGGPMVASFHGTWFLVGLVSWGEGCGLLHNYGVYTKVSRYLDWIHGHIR
T1 sequence (P00742 41-179 limits assumed): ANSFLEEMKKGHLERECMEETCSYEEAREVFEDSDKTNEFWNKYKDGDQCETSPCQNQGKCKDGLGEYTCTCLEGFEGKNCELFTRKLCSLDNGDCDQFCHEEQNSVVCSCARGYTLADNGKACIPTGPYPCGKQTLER
T1 sequence (P00742 235-488 limits assumed): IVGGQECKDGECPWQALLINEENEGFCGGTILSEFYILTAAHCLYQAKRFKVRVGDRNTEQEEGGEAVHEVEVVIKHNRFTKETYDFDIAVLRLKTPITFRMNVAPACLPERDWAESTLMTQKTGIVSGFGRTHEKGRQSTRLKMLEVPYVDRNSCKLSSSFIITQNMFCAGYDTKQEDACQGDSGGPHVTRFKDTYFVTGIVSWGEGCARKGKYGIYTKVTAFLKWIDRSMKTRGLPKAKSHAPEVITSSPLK

| inhibition at 500 µM (APC; absence of phospholipids, 500 μM PC142-155) [%] | Compound | effect on Factor Xa amidolytic activity towards chromogenic substrates (Factor Xa) | rate of Factor Va inactivation (%Vi /min) (APC; absence of phospholipids, 5 nM APC, 40 nM Va, 50 μM PC311-325) [% Vi /min] | IC50 (APC; presence of phospholipid vesicles, read-out: half-maximal inhibition of the APC-catalyzed inactivation of Factor Va) [µM] | inhibition at 50 µM (APC; read-out: inhibition of APC activity) [%] | effect on the clotting of purified fibrinogen by thrombin (thrombin) |
| --- | --- | --- | --- | --- | --- | --- |
|  | KRNRTFVLNFIKIPV-NH2 [PC311-325, Lys-Arg-Asn-Arg-Thr-Phe-Val-Leu-Asn-Phe-Ile-Lys-Ile-Pro-Val] | no significant effect | 0.5 | 6 | 87 | no effect |
| 87 | CSCC[C@H](NC(=O)[C@H](CCCNC(=N)N)NC(=O)[C@H](CCCCN)NC(=O)[C@H](Cc1c[nH]c2ccccc12)NC(=O)[C@@H]1CCCN1C(=O)[C@H](CCCNC(=N)N)NC(=O)CN)C(=O)N[C@@H](CCC(=O)O)C(=O)N[C@@H](CCCCN)C(=O)N[C@@H](CCCCN)C(=O)N[C@@H](CCCNC(=N)N)C(=O)N[C@@H](CO)C(=O)N[C@@H](Cc1c[nH]cn1)C(=O)N[C@@H](CC(C)C)C(=O)N[C@@H](CS)C(N)=O [PC142-155, Gly-Arg-Pro-Trp-Lys-Arg-Met-Glu-Lys-Lys-Arg-Ser-His-Leu] |  |  |  |  |  |
|  | MHKLREGKWRPKSR [Scrambled peptide, reference compound] | no significant effect |  |  |  | no effect |
